According to patent US11834698B2, “Process for determining enzyme activity in a cell by activity-based reporter gene technology (ABRGT)” (INDIAN INSTITUTE OF SCIENCE EDUCATION AND RESEARCH, priority 2018, dated 2023):
Several values for one entry are separate records, joined by “and”; a condition that tells them apart may be missing. Equal values may be shown once. Peptide text beside a SMILES is read from it. * marks the point of attachment. Cbz = O=C(OCc1ccccc1)*; CH2F = FC*

Legend:
caspase-7 GFPspark = molecular target: T1, caspase-7 GFPspark (Homo sapiens, UniProt P55210); assay: AbRGT FRET imaging / acceptor photobleaching, caspase-7 GFPspark in HEK-293 cells; assay type: cell-based
T1 construct: host or cells: MCF-7, HEK-293
T1 sequence (P55210 24-198 limits assumed): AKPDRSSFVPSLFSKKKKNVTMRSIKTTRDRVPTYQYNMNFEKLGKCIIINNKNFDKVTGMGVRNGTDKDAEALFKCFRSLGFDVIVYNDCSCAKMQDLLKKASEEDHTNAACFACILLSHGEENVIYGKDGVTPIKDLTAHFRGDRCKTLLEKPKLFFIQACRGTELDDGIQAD
T1 sequence (P55210 207-303 limits assumed): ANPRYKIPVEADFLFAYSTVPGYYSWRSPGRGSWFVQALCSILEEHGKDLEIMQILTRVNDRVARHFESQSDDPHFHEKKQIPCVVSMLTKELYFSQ
Protocol: FIGS. 14A and 14B depict specific detection of caspase-7 GFPspark in HEK-293 cells. Caspase-7 GFPspark (1 μg) transfected HEK-293 cells were treated with STS (1 μM) for 10 h and labelled with the probe 1 (1 μM) for 2 h. […] The acceptor photobleaching experiment was performed to confirm the FRET signal as described previously. Bar graph representing a rise in GFP intensity in ROI after rhodamine photobleaching was 87 a.u. as compared to the unbleached background, i.e., 13 a.u. FRET efficiency was calculated to be 33±2%.
Plasmids and transient transfection: GFPspark tagged plasmids; caspase-3 GFPspark tag (Cat: HG10050-ACG), caspase-7 GFPspark tag (HG10049-ACG), caspase-8 GFPspark (HG10078-ACG), caspase-9 GFPspark (HG11151-ACG) and cathepsin B GFPspark (HG10483-ACG) were procured from Sino Biological. For transfection, cells were seeded in a 6-well plate at a density of 0.4 million cells/well. […] 24 h post-transfection, cells were visualized under the GFP filter for GFPspark expression under fluorescence microscope at 10× magnification.
Labelling of active caspases in apoptotic cells with FABP: After 24 h of transfection, cells were treated with STS (1 μM) drug or TRAIL (1 μg/ml) for apoptotic induction and incubated for 2, 4, 6 and 8 h at 37° C. in a humidified atmosphere of 5% CO2/95% air. […] Slides were then imaged for GFP, FRET and rhodamine fluorescence signals under confocal microscopy. […]
Fluorescence imaging studies, FRET procedure: Images were collected on Zeiss LSM710 confocal microscope with 25 mW argon laser using Zen10 software. […] Images were collected in the three channels; GFP channel, argon laser tuned at 488 nm with 2% laser intensity and fluorescence emission was collected in emission range of 490-550 nm; rhodamine channel, argon laser tuned to 561 nm laser with 2% laser intensity and fluorescence emission was collected in range 550-650 nm and FRET channel with excitation laser of GFPSPARK channel and emission range of rhodamine channel. […]

caspase-3 GFPspark = molecular target: T2, caspase-3 GFPspark (Homo sapiens, UniProt P42574); assay: AbRGT FRET imaging / acceptor photobleaching, caspase-3 GFPspark in HEK-293 cells; assay type: cell-based; parameters: host or cells: HEK-293; details: HEK-293, STS 1 μM 10 h, probe 1 μM
T2 sequence (P42574 29-175 limits assumed): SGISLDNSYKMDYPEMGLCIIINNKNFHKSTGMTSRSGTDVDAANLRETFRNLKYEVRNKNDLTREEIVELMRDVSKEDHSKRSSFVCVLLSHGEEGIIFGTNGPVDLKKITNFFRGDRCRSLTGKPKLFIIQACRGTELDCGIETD
T2 sequence (P42574 176-277 limits assumed): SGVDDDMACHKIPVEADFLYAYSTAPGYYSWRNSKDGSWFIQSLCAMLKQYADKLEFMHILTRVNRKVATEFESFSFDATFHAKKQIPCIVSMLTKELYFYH

[1] = HEK-293, STS 1 μM 10 h, probe 1 μM 2 h

| Compound | effect of inhibitor on FRET signal (caspase-7 GFPspark; HEK-293, inhibitor 50 μM pre-treatment, STS 10 h) | calculated FRET efficiency (caspase-7 GFPspark; [1]) [%] | rise in GFP intensity in ROI after rhodamine photobleaching (caspase-7 GFPspark; [1]) [a.u.] | calculated FRET efficiency (caspase-3 GFPspark) | rise in GFP intensity in the ROI (caspase-3 GFPspark) [a.u.] |
| --- | --- | --- | --- | --- | --- |
| COC(=O)C[C@H](NC(=O)[C@H](C)NC(=O)[C@@H](NC(=O)OCc1ccccc1)C(C)C)C(=O)CF [Z-VAD-FMK] (Cbz-Val-Ala-Asp(OMe)-CH2F) | abolished |  |  |  |  |
| Rhodamine-VAD-fluoromethyl ketone [probe 1] |  | 33±2 | 87 | 32.5±2% and 33±2% | 72 |
